The values below are quoted from earlier work in US9522161B2, “Performance enhancing composition and method of delivering nutrients” (Advanced Bio Development, Inc., priority 2010, dated 2016).

“Also recorded” adds a separate entry of the source.

For series [1] the following is noted: taken orally.
The conditions of series [2]: pilot studies and human trials.
Assay in series [3]: not given
This is another data set of the same source.

Assay in series [4]: not given
This is another data set of the same source.

In series [5] the test system is mice that have a hypoinsulinemic type of diabetes. To be noted: mice with hypoinsulinemic type of diabetes.
Series [6] relates to muscle cells.
The conditions of series [7]: consumed orally, within two hours.
Assay in series [8]: not given
This is another data set of the same source.

The conditions of series [9]: humans, chronic high-intensity exercise, ribose supplementation.
The test system of series [10] is muscle. To be noted: ribose supplementation in rats, depending on muscle fiber type.

`Nc1ncnc2c1ncn2[C@@H]1O[C@H](COP(=O)(O)OP(=O)([O-])OP(=O)([O-])O)[C@@H](O)[C@H]1O.[Na+].[Na+]` [ATP disodium, adenosine triphosphate (ATP) disodium]: the “duration of measurable increase in circulating ATP levels” value in series [1] is “at least six”. Besides, in [2], the adverse side effects result is “no adverse side effects have been observed”.
Regarding `Cn1c(=O)c2c(ncn2C)n(C)c1=O` [Caffeine], the “time until elevated levels appear in the bloodstream” value (after consumption) is 15 to 45 min. Moreover, the “time of peak concentrations post ingestion” value (post ingestion) is reported as “one”. Also, the “decrease of circulating concentrations” value (within three to six hours of consumption) is reported as 50 to 75%.
For the compound `COC1=C(OC)C(=O)C(C/C=C(\C)CC/C=C(\C)CC/C=C(\C)CC/C=C(\C)CC/C=C(\C)CC/C=C(\C)CC/C=C(\C)CC/C=C(\C)CC/C=C(\C)CCC=C(C)C)=C(C)C1=O` [CoQ10, Coenzyme Q10], in [3] (2,152 patients, 100 to 200 mg per day), the “safety in cardiovascular-related clinical trials” value is given as “safe, without any reports of toxicity or drug interactions”. Moreover, in series [3] (nausea, vomiting, diarrhea, appetite suppression, heartburn, epigastric discomfort), the “share of users with gastrointestinal side effects” value is given as “Less than one”. Further, in [3] (over 8 months), the “dosing level shown to be safe and well tolerated” value is recorded as ≤ 3,000 mg per day. Moreover, the “increase in plasma concentrations” value in [4] (dosages of 90 to 150 mg/day) is on record as 180%. The “uptake of CoQ10 into the blood, share of the dose administered” value in series [4] (in vivo) was 5 to 10%.
With `CO[C@H]1[C@H](O)[C@@H](O)[C@@H](O)[C@H](O)[C@@H]1O` [D-pinitol], in series [5], the insulin-like effect result was “acute and chronic insulin-like effect”.
On to `CO[C@H]1[C@H](O)[C@@H](O)[C@@H](O)[C@H](O)[C@@H]1O` [Pinitol], for which the “stimulation of glucose uptake in muscle cells” value in series [6] is reported as 25-80%.
For the compound `O=C[C@H](O)[C@H](O)[C@H](O)CO` [Ribose], the “fraction of ribose absorbed in the intestines” value in series [7] is on record as 88-100%. Moreover, the known side effects entry in series [8] (doses of 10 grams or more on an empty stomach) is “transient hypoglycemia; also recorded: gastrointestinal discomfort, including loose stools and diarrhea”. In addition, the “ribose level that can be safely ingested” value in series [8] (in vivo) is on record as at most 15 g per day. Also, the “time to return TAN and ATP levels to baseline” value in [9] was 65 to 72 h. In series [10], the “increase in hypoxanthine salvage” value is listed as “six- to eight-fold” and the “increase in nucleotide salvage” value is reported as “three- to six-fold”.
